Experimental data from PubChem BioAssay AID222 (DTP/NCI, 2004).
Several values for one entry are separate records, joined by “and”; a condition that tells them apart may be missing. Equal entries are not always repeated. Inconclusive results and toxic doses are left out. The calls were made as follows: active = survival T/C of 150% or more; inactive = T/C below 125% in these data.

Test system: C57BL/6 mice, intracerebral ependymoblastoma, median survival T/C
Assay: NCI In Vivo Anticancer Drug Screen. Data for tumor model Ependymoblastoma (intracerebral) in C57BL/6 mice
Conditions: endpoint: median survival time, higher = longer survival
Procedure: The antitumor activity of compounds was measured in mice bearing transplantable tumors. Survival or tumor size were measured and the results are expressed as the measurement made in the treated group (T) divided by the measurement made in the vehicle treated control group (C). The tumor model used in this assay is Ependymoblastoma (intracerebral) in C57BL/6 mice

[1] = dose: 0.5 mg/kg/injection, schedule: Q01DX005 (ip), vehicle: Klucel (hydroxypropylcellulose) (HPC)
[2] = dose: 1.0 mg/kg/injection, schedule: Q01DX005 (ip), vehicle: Klucel (hydroxypropylcellulose) (HPC)
[3] = dose: 2.0 mg/kg/injection, schedule: Q01DX005 (ip), vehicle: Klucel (hydroxypropylcellulose) (HPC)
[4] = dose: 4.0 mg/kg/injection, schedule: Q01DX005 (ip), vehicle: Klucel (hydroxypropylcellulose) (HPC)
[5] = dose: 4.0 mg/kg/injection, schedule: Q01DX005 (ip), vehicle: saline with Tween-80
[6] = dose: 4.0 mg/kg/injection, schedule: Q01DX005 (ip), vehicle: saline
[7] = dose: 8.0 mg/kg/injection, schedule: Q01DX005 (ip), vehicle: saline with Tween-80
[8] = dose: 16.0 mg/kg/injection, schedule: Q01DX005 (ip), vehicle: Klucel (hydroxypropylcellulose) (HPC)
[9] = dose: 8.0 mg/kg/injection, schedule: Q01DX005 (ip), vehicle: saline
[10] = dose: 16.0 mg/kg/injection, schedule: Q01DX005 (ip), vehicle: saline
[11] = dose: 32.0 mg/kg/injection, schedule: Q01DX005 (ip), vehicle: saline

Measured: T/C

O=C1c2ccccc2C(=O)c2c(NCCNCCO)ccc(NCCNCCO)c21
inactive: [1] 104 % of control and 110 % of control | dose: 0.5 mg/kg/injection, schedule: Q01DX005 (ip), vehicle: water 91 % of control and 103 % of control | [2] 102 % of control and 107 % of control | dose: 1.0 mg/kg/injection, schedule: Q01DX005 (ip), vehicle: saline with Tween-80 94 % of control | dose: 1.0 mg/kg/injection, schedule: Q01DX005 (ip), vehicle: saline 94 % of control | dose: 1.0 mg/kg/injection, schedule: Q01DX005 (ip), vehicle: water 105 % of control | dose: 1.0 mg/kg/injection, schedule: Q04DX003 (ip), vehicle: Klucel (hydroxypropylcellulose) (HPC) 113 % of control | dose: 1.0 mg/kg/injection, schedule: Q04DX003 (ip), vehicle: water 103 % of control | [3] 97 % of control and 108 % of control | dose: 2.0 mg/kg/injection, schedule: Q01DX005 (ip), vehicle: saline with Tween-80 100 % of control | dose: 2.0 mg/kg/injection, schedule: Q01DX005 (ip), vehicle: saline 108 % of control | dose: 2.0 mg/kg/injection, schedule: Q01DX005 (ip), vehicle: water 94 % of control and 102 % of control | dose: 2.0 mg/kg/injection, schedule: Q04DX003 (ip), vehicle: Klucel (hydroxypropylcellulose) (HPC) 103 % of control | dose: 2.0 mg/kg/injection, schedule: Q04DX003 (ip), vehicle: water 110 % of control | dose: 4.0 mg/kg/injection, schedule: Q01DX001 (ip), vehicle: Klucel (hydroxypropylcellulose) (HPC) 87 % of control | dose: 4.0 mg/kg/injection, schedule: Q01DX001 (ip), vehicle: water 107 % of control | [4] 98 % of control and 104 % of control | dose: 4.0 mg/kg/injection, schedule: Q01DX005 (ip), vehicle: other 105 % of control | [5] 104 % of control and 109 % of control | [6] 100 % of control | dose: 4.0 mg/kg/injection, schedule: Q01DX005 (ip), vehicle: water 98 % of control and 105 % of control | dose: 4.0 mg/kg/injection, schedule: Q04DX003 (ip), vehicle: Klucel (hydroxypropylcellulose) (HPC) 104 % of control | dose: 4.0 mg/kg/injection, schedule: Q04DX003 (ip), vehicle: water 96 % of control | dose: 8.0 mg/kg/injection, schedule: Q01DX001 (ip), vehicle: Klucel (hydroxypropylcellulose) (HPC) 95 % of control | dose: 8.0 mg/kg/injection, schedule: Q01DX001 (ip), vehicle: water 101 % of control | dose: 8.0 mg/kg/injection, schedule: Q01DX005 (ip), vehicle: Klucel (hydroxypropylcellulose) (HPC) 104 % of control and 107 % of control | dose: 8.0 mg/kg/injection, schedule: Q01DX005 (ip), vehicle: other 110 % of control | [7] 115 % of control | dose: 8.0 mg/kg/injection, schedule: Q01DX005 (ip), vehicle: water 106 % of control and 108 % of control | dose: 8.0 mg/kg/injection, schedule: Q04DX003 (ip), vehicle: Klucel (hydroxypropylcellulose) (HPC) 108 % of control | dose: 8.0 mg/kg/injection, schedule: Q04DX003 (ip), vehicle: water 119 % of control | dose: 16.0 mg/kg/injection, schedule: Q01DX001 (ip), vehicle: Klucel (hydroxypropylcellulose) (HPC) 98 % of control | dose: 16.0 mg/kg/injection, schedule: Q01DX001 (ip), vehicle: water 107 % of control | [8] 110 % of control and 112 % of control | dose: 16.0 mg/kg/injection, schedule: Q01DX005 (ip), vehicle: water 105 % of control | dose: 16.0 mg/kg/injection, schedule: Q04DX003 (ip), vehicle: Klucel (hydroxypropylcellulose) (HPC) 109 % of control | dose: 16.0 mg/kg/injection, schedule: Q04DX003 (ip), vehicle: water 114 % of control | dose: 32.0 mg/kg/injection, schedule: Q01DX001 (ip), vehicle: Klucel (hydroxypropylcellulose) (HPC) 112 % of control | dose: 32.0 mg/kg/injection, schedule: Q01DX001 (ip), vehicle: water 112 % of control | dose: 32.0 mg/kg/injection, schedule: Q01DX005 (ip), vehicle: Klucel (hydroxypropylcellulose) (HPC) 93 % of control and 117 % of control | dose: 32.0 mg/kg/injection, schedule: Q04DX003 (ip), vehicle: Klucel (hydroxypropylcellulose) (HPC) 103 % of control | dose: 32.0 mg/kg/injection, schedule: Q04DX003 (ip), vehicle: water 109 % of control | dose: 64.0 mg/kg/injection, schedule: Q01DX001 (ip), vehicle: Klucel (hydroxypropylcellulose) (HPC) 105 % of control | dose: 64.0 mg/kg/injection, schedule: Q01DX001 (ip), vehicle: water 115 % of control | dose: 64.0 mg/kg/injection, schedule: Q04DX003 (ip), vehicle: Klucel (hydroxypropylcellulose) (HPC) 99 % of control | dose: 128.0 mg/kg/injection, schedule: Q01DX001 (ip), vehicle: Klucel (hydroxypropylcellulose) (HPC) 98 % of control | dose: 256.0 mg/kg/injection, schedule: Q01DX001 (ip), vehicle: Klucel (hydroxypropylcellulose) (HPC) 104 % of control

O=c1n(CC2CO2)c(=O)n(CC2CO2)c(=O)n1CC1CO1 (configuration not stated)
inactive: dose: 20.0 mg/kg/injection, schedule: Q01DX009 (ip), vehicle: saline 114 % of control | dose: 25.0 mg/kg/injection, schedule: Q01DX009 (ip), vehicle: saline 114 % of control | dose: 40.0 mg/kg/injection, schedule: Q01DX009 (ip), vehicle: saline 124 % of control | dose: 50.0 mg/kg/injection, schedule: Q01DX009 (ip), vehicle: saline 111 % of control | dose: 100.0 mg/kg/injection, schedule: Q01DX009 (ip), vehicle: saline 95 % of control

CCC(=O)O[C@H]1CC[C@H]2[C@@H]3CCC4=CC(=O)CC[C@]4(C)[C@H]3CC[C@]12C
inactive: [9] 91 % of control and 98 % of control | [10] 90 % of control and 102 % of control | [11] 93 % of control and 100 % of control | dose: 64.0 mg/kg/injection, schedule: Q01DX005 (ip), vehicle: saline 98 % of control and 99 % of control | dose: 128.0 mg/kg/injection, schedule: Q01DX005 (ip), vehicle: saline 90 % of control | dose: 256.0 mg/kg/injection, schedule: Q01DX005 (ip), vehicle: saline 89 % of control and 94 % of control | dose: 512.0 mg/kg/injection, schedule: Q01DX005 (ip), vehicle: saline 91 % of control and 99 % of control

Nc1nc([Se])c2ncn(C3OC(CO)C(O)C3O)c2n1 (configuration not stated)
inactive: dose: 0.25 mg/kg/injection, schedule: Q01DX005 (ip), vehicle: Klucel (hydroxypropylcellulose) (HPC) 103 % of control and 106 % of control | [1] 107 % of control and 112 % of control | [2] 99 % of control and 101 % of control | [3] 100 % of control and 102 % of control and 112 % of control | [4] 88 % of control and 105 % of control and 112 % of control | [5] 96 % of control | [6] 100 % of control | [7] 100 % of control | [9] 98 % of control and 99 % of control | [8] 102 % of control and 103 % of control | dose: 16.0 mg/kg/injection, schedule: Q01DX005 (ip), vehicle: saline with Tween-80 113 % of control | [10] 106 % of control and 111 % of control | dose: 27.8 mg/kg/injection, schedule: Q## X006 (ip), vehicle: saline 108 % of control | [11] 116 % of control | dose: 32.0 mg/kg/injection, schedule: Q#A X002 (ip), vehicle: saline 95 % of control and 104 % of control | dose: 55.7 mg/kg/injection, schedule: Q## X006 (ip), vehicle: saline 112 % of control | dose: 64.0 mg/kg/injection, schedule: Q#A X002 (ip), vehicle: saline 101 % of control and 120 % of control | dose: 128.0 mg/kg/injection, schedule: Q#A X002 (ip), vehicle: saline 87 % of control
